Assay results: patent US5599806A, “Hydrazino and hydroxyamino-14-β-hydroxyandrostane derivatives active on the cardiovascular system processes for their preparation and pharmaceutical compositions containing same” (Sigma-Tau Industrie Farmaceutiche Riunite S.p.A., priority 1994, dated 1997)
Read-outs that look alike come from different tables or passages of the source.

Experiments:
[1] = biological target: Na^+, K^+ -ATPase receptor; experiment: displacement of the specific ^3 H-ouabain binding from the Na^+, K^+ -ATPase receptor; conditions: ^3 H-ouabain displacement, purified Na^+
Source text: a) displacement of the specific ^3 H-ouabain binding from the Na^+, K^+ -ATPase receptor purified according to Jorghensen (Jorghensen P., BBA, 1974, 356, 36) and Erdmann (Erdmann E. et al., Arzneim. Forsh., 1984, 34, 1314);

[2] = biological target: T1, purified Na^+, K^+ -ATPase (Canis lupus familiaris, UniProt P50997); experiment: inhibition of the activity of the purified Na^+, K^+ -ATPase (hydrolysis of ^32 P-ATP); assay type: biochemical
T1 construct: from tissue
Source text: To test the affinity for the receptor site of the Na^+, K^+ -ATPase and the inhibition of the activity of the enzyme, the following tests were used:
b) inhibition of the activity of the purified Na^+, K^+ -ATPase measured as % of hydrolysis of ^32 P-ATP in the presence and in the absence of the tested compound (Doucet A. et al., Am. J. Physiol., 1986, 251, F851)

[3] = tested on: spontaneous hypertensive rats (MHS); experiment: effect of 5 week-treatment in spontaneous hypertensive rats (MHS) on the development of hypertension (SBP and HR, tail cuff method); assay type: in vivo, rat; conditions: 0.1 mg/Kg/os daily, 5 weeks, in Methocel 0.5% w/v
Procedure: Systolic blood pressure (SBP) and hear rate (HR) were measured, by the tail cuff method, in young prehypertensive male rats (MHS or SHR) strains before the development of hypertension (4 weeks of age) for recording the basal values of SBP. Groups of 7 rats were formed and subdivided in control and treated groups.
The compound, suspended in Methocel 0.5% (w/v), was orally given daily for at least 5 weeks to the treated groups. The control group received only Methocel.
SBP and HR were measured weekly 6 and 24 hrs after treatment. After 5 weeks of treatment, when hypertension was fully developed in the control group (9 weeks of age), washout was started for at least one week, to verify whether the treatment maintained blood pressure low or reestablished the basal values.
(Takeda K. et al., Japan J. Pharmacol., 1979, 29, 171; Takeda K. et al. Japan J. Pharmacol., 1982, 32, 283; Richer C. et al. Eur. J. Pharmacol, 1978, 47,393).

[4] = hydrolysis of ^32 P-ATP, purified Na^+, K^+ -ATPase, read-out: Inhibitory Activity (-log IC50) (converted)

Compound	Binding ^3 H-Ouab. Displacement (-log IC50) [1]	IC50 [2, 4] [µM]	IC50 [2] [µM]	SBP ([3]; controls 170 +/- 5.5)	HR ([3]; controls 378 +/- 12.0)
C[C@]12CC[C@H](O)C[C@H]1CC[C@@H]1[C@@H]2CC[C@]2(C)[C@@H](CNNC(=N)N)CC[C@]12O [Comp. I-aa, 17β-[2-(Amidino)]hydrazinomethyl-5β-androstane-3β,14β-diol]	6.9	–	–	–	–
C[C@]12CC[C@H](O)C[C@H]1CC[C@@H]1[C@@H]2CC[C@]2(C)[C@@H](CNNC3=NCCN3)CC[C@]12O [Comp. I-ab, 17β-[2-(2-Imidazolin-2-yl)]hydrazinomethyl-5β-androstane-3β,14β-diol]	6.6	3.16	–	–	–
CN1CCN=C1NNC[C@H]1CC[C@]2(O)[C@@H]3CC[C@@H]4C[C@@H](O)CC[C@]4(C)[C@H]3CC[C@]12C [Comp. I-ac, 17β-[2-(1-Methyl-2-imidazolin-2-yl)]hydrazinomethyl-5β-androstane-3β,14β-diol]	6.0	–	10	–	–
C[C@]12CC[C@H](O)C[C@H]1CC[C@@H]1[C@@H]2CC[C@]2(C)[C@@H](CNNC3=NCCCN3)CC[C@]12O [Comp. I-ad, 17β-[2-(1,4,5,6-Tetrahydro-2-pyrimidinyl)]hydrazinomethyl-5β-androstane-3β,14β-diol]	6.5	–	3.98	–	–
CN(C)CCNC(=N)NNC[C@H]1CC[C@]2(O)[C@@H]3CC[C@@H]4C[C@@H](O)CC[C@]4(C)[C@H]3CC[C@]12C [Comp. I-ae, 17β-{2-[N-(2-Dimethylaminoethyl)amidino]}hydrazinomethyl-5β-androstane-3β,14β-diol]	5.4	–	31.6	–	–
C[C@]12CC[C@H](O)C[C@H]1CC[C@@H]1[C@@H]2CC[C@]2(C)[C@@H](CNNC(=N)Nc3ccccc3)CC[C@]12O [Comp. I-af, 17β-[2-(N-Phenylamidino)]hydrazinomethyl-5β-androstane-3β,14β-diol]	5.0	–	63.1	–	–
CC(NNC(=N)N)[C@H]1CC[C@]2(O)[C@@H]3CC[C@@H]4C[C@@H](O)CC[C@]4(C)[C@H]3CC[C@]12C (stereo partly drawn) [Comp. I-ag, 20-(2-Amidino)hydrazino-5β-pregnane-3β,14β-diol]	6.5	–	6.31	–	–
C[C@]12CC[C@H](O)C[C@H]1CC[C@@H]1[C@@H]2CC[C@]2(C)[C@@H](CNO)CC[C@]12O [Comp. I-ah, 17β-Hydroxyaminomethyl-5β-androstane-3β,14β-diol]	5.0	–	79.4	–	–
CONC[C@H]1CC[C@]2(O)[C@@H]3CC[C@@H]4C[C@@H](O)CC[C@]4(C)[C@H]3CC[C@]12C [Comp. I-ai, 17β-Methoxyaminomethyl-5β-androstane-3β,14β-diol]	5.1	–	–	–	–
C[C@]12CC[C@H](O)C[C@H]1CC[C@@H]1[C@@H]2CC[C@]2(C)[C@@H](CNOCCN)CC[C@]12O [Comp. I-aj, 17β-(2-Aminoethoxyamino)methyl-5β-androstane-3β,14β-diol]	7.2	–	1	150 +/- 4.1 mm Hg	372 +/- 11.7 beats/min.
C[C@]12CC[C@H](O)C[C@H]1CC[C@@H]1[C@@H]2CC[C@]2(C)[C@@H](CNOCCCN)CC[C@]12O [Comp. I-ak, 17β-(3-Aminopropoxyamino)methyl-5β-androstane-3β,14β-diol]	6.9	–	2.51	–	–
C[C@]12CC[C@H](O)C[C@H]1CC[C@@H]1[C@@H]2CC[C@]2(C)[C@@H](CNOCCCCN)CC[C@]12O [Comp. I-al, 17β-(4-Aminobutoxyamino)methyl-5β-androstane-3β,14β-diol]	6.2	–	–	–	–
CN(C)CCCONC[C@H]1CC[C@]2(O)[C@@H]3CC[C@@H]4C[C@@H](O)CC[C@]4(C)[C@H]3CC[C@]12C [Comp. I-an, 17β-(3-Dimethylaminopropoxyamino)methyl-5β-androstane-3β,14β-diol]	–	–	63.1	–	–
CN(C)CCCCONC[C@H]1CC[C@]2(O)[C@@H]3CC[C@@H]4C[C@@H](O)CC[C@]4(C)[C@H]3CC[C@]12C [Comp. I-ao, 17β-(4-Dimethylaminobutoxyamino)methyl-5β-androstane-3β,14β-diol]	–	–	79.4	–	–
CN(C)CCON(C)C[C@H]1CC[C@]2(O)[C@@H]3CC[C@@H]4C[C@@H](O)CC[C@]4(C)[C@H]3CC[C@]12C [Comp. I-ap, 17β-[N-Methyl-N-(2-dimethylaminoethoxy)amino]methyl-5β-androstane-3β,14β-diol]	5.0	100	–	–	–
C[C@]12CC[C@H](O)C[C@H]1CC[C@@H]1[C@@H]2CC[C@]2(C)[C@@H](CNOCCNC(=N)N)CC[C@]12O [Comp. I-aq, 17β-(2-Guanidinoethoxyamino)methyl-5β-androstane-3β,14β-diol]	6.0	39.8	–	–	–
CC(NOCCN(C)C)[C@H]1CC[C@]2(O)[C@@H]3CC[C@@H]4C[C@@H](O)CC[C@]4(C)[C@H]3CC[C@]12C (stereo partly drawn) [Comp. I-ar, 20β-(2-Dimethylaminoethoxyamino)-5β-pregnane-3β,14β-diol]	5.7	–	63.1	–	–
C[C@]12CC[C@H](O)C[C@H]1CC[C@@H]1[C@@H]2CC[C@]2(C)[C@@H](C=CCNNC(=N)N)CC[C@]12O [Comp. I-as, 17β-{3-[2-(Amidino)]hydrazino-1-propenyl}-5β-androstane-3β,14β-diol]	6.0	–	31.6	–	–
C[C@]12CC[C@H](O)C[C@H]1CC[C@@H]1[C@@H]2CC[C@]2(C)[C@@H](C=CCNOCCN)CC[C@]12O [Comp. I-at, 17β-[3-(2-Aminoethoxyamino)-1-propenyl]-5β-androstane-3β,14β-diol]	6.7	–	10	–	–
CN(C)CCONCC=C[C@H]1CC[C@]2(O)[C@@H]3CC[C@@H]4C[C@@H](O)CC[C@]4(C)[C@H]3CC[C@]12C [Comp. I-au, 17β-[3-(2-Dimethylaminoethoxyamino)-1-propenyl]-5β-androstane-3β,14β-diol]	5.9	39.8	–	–	–
CC(=C[C@H]1CC[C@]2(O)[C@@H]3CC[C@@H]4C[C@@H](O)CC[C@]4(C)[C@H]3CC[C@]12C)CNOCCN(C)C [Comp. I-av, 17β-[3-(2-Dimethylaminoethoxyamino)-2-methyl-1-propenyl]-5β-androstane-3β,14β-diol]	5.7	–	63.1	–	–
CN(C)CCONCC[C@H]1CC[C@]2(O)[C@@H]3CC[C@@H]4C[C@@H](O)CC[C@]4(C)[C@H]3CC[C@]12C [Comp. I-ax, 17β-[2-(2-Dimethylaminoethoxyamino)ethyl]-5β-androstane-3β,14β-diol]	5.7	39.8	–	–	–
CN(C)CCONCCC[C@H]1CC[C@]2(O)[C@@H]3CC[C@@H]4C[C@@H](O)CC[C@]4(C)[C@H]3CC[C@]12C [Comp. I-ay, 17β-[3-(2-Dimethylaminoethoxyamino)propyl]-5β-androstane-3β,14β-diol]	5.8	39.8	–	–	–
CN(C)CCONC[C@@]1(O)CC[C@]2(O)[C@@H]3CC[C@@H]4C[C@@H](O)CC[C@]4(C)[C@H]3CC[C@]12C [Comp. I-ba, 17β-(2-Dimethylaminoethoxyamino)methyl-5β-androstane-3β,14β,17α-diol]	5.2	–	100	–	–
CN(C)CCONC[C@H]1CC[C@]2(O)[C@@H]3CC[C@@H]4C[C@@H](OCCN)CC[C@]4(C)[C@H]3CC[C@]12C [Comp. I-bc, 3β-(2-Aminoethoxy)-17β-(2-dimethylaminoethoxyamino)methyl-5β-androstane-14β-ol]	6.1	39.8	–	–	–
CN(C)CCONC[C@H]1CC[C@]2(O)[C@@H]3CC[C@@H]4C[C@@H](OCCN5CCCC5)CC[C@]4(C)[C@H]3CC[C@]12C [Comp. I-bd, 3β-[2-(1-Pyrrolidinyl)ethoxy]-17β-(2-dimethylaminoethoxyamino)methyl-5β-androstane-3β,14β-diol]	6.2	–	31.6	–	–
CN(C)CCONC[C@H]1CC[C@]2(O)[C@@H]3CC[C@@H]4C[C@@H](OCCCN5CCCC5)CC[C@]4(C)[C@H]3CC[C@]12C [Comp. I-be, 3β-(3-(1-Pyrrolidinyl)propoxy)-17β-(2-dimethylaminoethoxyamino)methyl-5β-androstane-3β,14β-diol]	6.0	–	–	–	–
